Laboratory results taken from patent US9611277B2 (Janssen Pharmaceutica NV, priority 2013, dated 2017).

Key:
human orexin 2 receptor = human orexin 2 receptor (Homo sapiens (Human), UniProt O43614); assay: Human orexin 2 receptor radioligand binding; settings: human orexin 2 receptor; averages of 2-20 runs; read-out: hOX2 Ki
In short: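 Ki derived from one-site competition IC50 using predetermined Kd of [3H]-EMPA, triplicate points, 2-20 runs averaged. Binding done on homogenized HEK293 cells stably expressing human orexin 2 receptor, DMSO ≤0.1%, with 10 μM almorexant defining nonspecific binding; filtered, washed, scintillation counted.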

rat orexin 1 receptor = rat orexin 1 receptor (Rattus norvegicus, UniProt P56718); assay: Rat orexin 1 receptor radioligand binding; settings: rat orexin 1 receptor; averages of 2-20 runs; read-out: rOX1 Ki
In short: (§1)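 Ki values derive from one-site competition IC50s corrected with the radioligand's predetermined Kd, triplicates per run, averaged over 2-20 runs. Cell homogenates (rat or human OX1R) compete against [^3H]-thiazolyl-oxadiazolyl-pyrrolidine methanone in PBS; 10 μM almorexant sets nonspecific binding; scintillation counting after washing.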

human orexin 1 receptor = human orexin 1 receptor (Homo sapiens, UniProt O43613); assay: Human orexin 1 receptor radioligand binding; settings: human orexin 1 receptor; averages of 2-20 runs; read-out: hOX1 Ki
In short: as §1

Sequence of human orexin 2 receptor (O43614 whole entry): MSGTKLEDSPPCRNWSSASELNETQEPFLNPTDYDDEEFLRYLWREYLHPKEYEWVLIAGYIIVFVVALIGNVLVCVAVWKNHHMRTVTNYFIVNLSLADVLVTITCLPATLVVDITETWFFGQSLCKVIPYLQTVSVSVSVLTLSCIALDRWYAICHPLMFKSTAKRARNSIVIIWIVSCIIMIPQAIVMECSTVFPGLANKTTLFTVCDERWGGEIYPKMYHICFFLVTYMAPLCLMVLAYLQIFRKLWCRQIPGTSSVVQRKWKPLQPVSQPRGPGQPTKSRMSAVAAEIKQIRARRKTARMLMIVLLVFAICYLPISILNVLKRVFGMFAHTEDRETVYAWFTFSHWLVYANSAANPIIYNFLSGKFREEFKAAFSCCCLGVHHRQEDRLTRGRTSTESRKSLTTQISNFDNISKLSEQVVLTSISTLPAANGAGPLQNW

Compound | Ki (human orexin 2 receptor) [nM] | Ki (rat orexin 1 receptor) [nM] | Ki (human orexin 1 receptor) [nM]
O=C(c1ccc(F)cc1-c1ncccn1)N1C[C@H]2C[C@@H](Nc3ncc(Cl)cn3)[C@@H]1C2 [Example 237, ((1S,4S,6R)-6-((5-chloropyrimidin-2-yl)amino)-2-azabicyclo[2.2.1]heptan-2-yl)(4-fluoro-2-(pyrimidin-2-yl)phenyl)methanone] | 1900 | 32 | 13
O=C(c1c(F)cccc1-c1ncccn1)N1C[C@H]2C[C@@H](Nc3ncc(Cl)cn3)[C@@H]1C2 [Example 239, ((1S,4S,6R)-6-((5-chloropyrimidin-2-yl)amino)-2-azabicyclo[2.2.1]heptan-2-yl)(2-fluoro-6-(pyrimidin-2-yl)phenyl)methanone] | 726 | 23 | 41
O=C(c1ccccc1-c1ncccn1)N1C[C@H]2C[C@@H](Nc3ncc(Cl)cn3)[C@@H]1C2 [Example 240, ((1S,4S,6R)-6-((5-chloropyrimidin-2-yl)amino)-2-azabicyclo[2.2.1]heptan-2-yl)(2-(pyrimidin-2-yl)phenyl)methanone] | 831 | 17 | 12
O=C(c1ccccc1-n1nccn1)N1C[C@H]2C[C@@H](Nc3ccc(C(F)(F)F)nn3)[C@@H]1C2 [Example 242, (2-(2H-1,2,3-triazol-2-yl)phenyl)((1S,4S,6R)-6-((6-(trifluoromethyl)pyridazin-3-yl)amino)-2-azabicyclo[2.2.1]heptan-2-yl)methanone] | 2100 | 89 | 113
Cc1ccc(-n2nccn2)c(C(=O)N2C[C@H]3C[C@@H](Nc4ccc(C(F)(F)F)nn4)[C@@H]2C3)n1 [Example 243, (6-methyl-3-(2H-1,2,3-triazol-2-yl)pyridin-2-yl)((1S,4S,6R)-6-((6-(trifluoromethyl)pyridazin-3-yl)amino)-2-azabicyclo[2.2.1]heptan-2-yl)methanone] | 1800 | 112 | 131
Cc1ccc(-c2ncccn2)c(C(=O)N2C[C@H]3C[C@@H](Nc4ccc(C(F)(F)F)nn4)[C@@H]2C3)n1 [Example 244, (6-methyl-3-(pyrimidin-2-yl)pyridin-2-yl)((1S,4S,6R)-6-((6-(trifluoromethyl)pyridazin-3-yl)amino)-2-azabicyclo[2.2.1]heptan-2-yl)methanone] | 1700 | 114 | 143
O=C(c1cccc(F)c1-c1ncccn1)N1C[C@H]2C[C@@H](Nc3ccc(C(F)(F)F)nn3)[C@@H]1C2 [Example 245, (3-fluoro-2-(pyrimidin-2-yl)phenyl)((1S,4S,6R)-6-((6-(trifluoromethyl)pyridazin-3-yl)amino)-2-azabicyclo[2.2.1]heptan-2-yl)methanone] | 4300 | 65 | 53
O=C(c1ccccc1-n1nccn1)N1C[C@H]2C[C@@H](Nc3ccc(C(F)(F)F)nc3)[C@@H]1C2 [Example 246, (2-(2H-1,2,3-triazol-2-yl)phenyl)((1S,4S,6R)-6-((6-(trifluoromethyl)pyridin-3-yl)amino)-2-azabicyclo[2.2.1]heptan-2-yl)methanone] | 843 | 194 | 155
O=C(c1cccc(F)c1-c1ncccn1)N1C[C@H]2C[C@@H](Nc3ccc(C(F)(F)F)nc3)[C@@H]1C2 [Example 247, (3-fluoro-2-(pyrimidin-2-yl)phenyl)((1S,4S,6R)-6-((6-(trifluoromethyl)pyridin-3-yl)amino)-2-azabicyclo[2.2.1]heptan-2-yl)methanone] | 939 | 26 | 31
O=C(c1cccc(F)c1-c1ncc(F)cn1)N1C[C@@H]2CC[C@H]1[C@H](Oc1ccc(C(F)(F)F)cn1)C2 [Example 263, (3-fluoro-2-(5-fluoropyrimidin-2-yl)phenyl)((1S,4R,6R)-6-((5-(trifluoromethyl)pyridin-2-yl)oxy)-2-azabicyclo[2.2.2]octan-2-yl)methanone] | 1100 | 11 | 9
Cc1cnc(C(=O)N2C[C@@H]3CC[C@H]2[C@H](Oc2ccc(C(F)(F)F)cn2)C3)c(-c2ncccn2)c1 [Example 264, (5-methyl-3-(pyrimidin-2-yl)pyridin-2-yl)((1S,4R,6R)-6-((5-(trifluoromethyl)pyridin-2-yl)oxy)-2-azabicyclo[2.2.2]octan-2-yl)methanone] | > 10000 | 10 | 16
Cc1ccc(O[C@@H]2C[C@H]3CC[C@@H]2N(C(=O)c2cccc(F)c2-c2ncccn2)C3)nc1 [Example 267, (3-fluoro-2-(pyrimidin-2-yl)phenyl)((1S,4R,6R)-6-((5-methylpyridin-2-yl)oxy)-2-azabicyclo[2.2.2]octan-2-yl)methanone] | 1100 | 26 | 19
O=C(c1ccccc1-c1ncc(F)cn1)N1C[C@@H]2CC[C@H]1[C@H](Oc1cnc(C(F)(F)F)cn1)C2 [Example 272, (2-(5-fluoropyrimidin-2-yl)phenyl)((1S,4R,6R)-6-((5-(trifluoromethyl)pyrazin-2-yl)oxy)-2-azabicyclo[2.2.2]octan-2-yl)methanone] | 1400 | 23 | 11
O=C(c1cccc(F)c1-c1ncc(F)cn1)N1C[C@@H]2CC[C@H]1[C@H](Oc1cnc(C(F)(F)F)cn1)C2 [Example 273, (3-fluoro-2-(5-fluoropyrimidin-2-yl)phenyl)((1S,4R,6R)-6-((5-(trifluoromethyl)pyrazin-2-yl)oxy)-2-azabicyclo[2.2.2]octan-2-yl)methanone] | 3800 | 44 | 16
O=C(c1ccc(F)cc1-c1ncccn1)N1C[C@@H]2CC[C@H]1[C@H](Nc1cnc(C(F)(F)F)cn1)C2 [Example 277, (4-fluoro-2-(pyrimidin-2-yl)phenyl)((1S,4R,6R)-6-((5-(trifluoromethyl)pyrazin-2-yl)amino)-2-azabicyclo[2.2.2]octan-2-yl)methanone] | 998 | 17 | 15

Compounds with a lower Ki (human orexin 2 receptor), results first:

Ki (human orexin 2 receptor) [nM] | Ki (rat orexin 1 receptor) [nM] | Ki (human orexin 1 receptor) [nM] | Compound
654 | 11 | 11 | O=C(c1cccc(F)c1-c1ncccn1)N1C[C@@H]2CC[C@H]1[C@H](Oc1ncc(C(F)(F)F)cc1F)C2 [Example 266, (3-fluoro-2-(pyrimidin-2-yl)phenyl)((1S,4R,6R)-6-((3-fluoro-5-(trifluoromethyl)pyridin-2-yl)oxy)-2-azabicyclo[2.2.2]octan-2-yl)methanone]
452 | 7 | 8 | O=C(c1cccc(F)c1-c1ncccn1)N1C[C@@H]2CC[C@H]1[C@H](Oc1ccc(Cl)cn1)C2 [Example 271, ((1S,4R,6R)-6-((5-chloropyridin-2-yl)oxy)-2-azabicyclo[2.2.2]octan-2-yl)(3-fluoro-2-(pyrimidin-2-yl)phenyl)methanone]
400 | 21 | 9 | O=C(c1c(F)cccc1-c1ncccn1)N1C[C@@H]2CC[C@H]1[C@H](Oc1ccc(C(F)(F)F)cn1)C2 [Example 261, (2-fluoro-6-(pyrimidin-2-yl)phenyl)((1S,4R,6R)-6-((5-(trifluoromethyl)pyridin-2-yl)oxy)-2-azabicyclo[2.2.2]octan-2-yl)methanone]
363 | 4 | 5 | O=C(c1cccc(F)c1-c1ncccn1)N1C[C@@H]2CC[C@H]1[C@H](Oc1ccc(Br)cn1)C2 [Example 269, ((1S,4R,6R)-6-((5-bromopyridin-2-yl)oxy)-2-azabicyclo[2.2.2]octan-2-yl)(3-fluoro-2-(pyrimidin-2-yl)phenyl)methanone]
306 | 14 | 19 | Cc1ccc(-c2ncccn2)c(C(=O)N2C[C@@H]3CC[C@H]2[C@H](Oc2ccc(C(F)(F)F)cn2)C3)n1 [Example 265, (6-methyl-3-(pyrimidin-2-yl)pyridin-2-yl)((1S,4R,6R)-6-((5-(trifluoromethyl)pyridin-2-yl)oxy)-2-azabicyclo[2.2.2]octan-2-yl)methanone]
294 | 11 | 10 | O=C(c1cc(F)ccc1-c1ncccn1)N1C[C@@H]2CC[C@H]1[C@H](Oc1ccc(C(F)(F)F)cn1)C2 [Example 260, (5-fluoro-2-(pyrimidin-2-yl)phenyl)((1S,4R,6R)-6-((5-(trifluoromethyl)pyridin-2-yl)oxy)-2-azabicyclo[2.2.2]octan-2-yl)methanone]
243 | 14 | 7 | O=C(c1cc(F)ccc1-c1ncccn1)N1C[C@@H]2CC[C@H]1[C@H](Nc1cnc(C(F)(F)F)cn1)C2 [Example 278, (5-fluoro-2-(pyrimidin-2-yl)phenyl)((1S,4R,6R)-6-((5-(trifluoromethyl)pyrazin-2-yl)amino)-2-azabicyclo[2.2.2]octan-2-yl)methanone]
200 | 5 | 4 | O=C(c1ccccc1-n1nccn1)N1C[C@@H]2CC[C@H]1[C@H](Oc1ccc(Br)cn1)C2 [Example 268, (2-(2H-1,2,3-triazol-2-yl)phenyl)((1S,4R,6R)-6-((5-bromopyridin-2-yl)oxy)-2-azabicyclo[2.2.2]octan-2-yl)methanone]
200 | 4 | 3 | O=C(c1ccccc1-n1nccn1)N1C[C@@H]2CC[C@H]1[C@H](Oc1ccc(Cl)cn1)C2 [Example 270, (2-(2H-1,2,3-triazol-2-yl)phenyl)((1S,4R,6R)-6-((5-chloropyridin-2-yl)oxy)-2-azabicyclo[2.2.2]octan-2-yl)methanone]
